Values quoted from earlier work in US5932596A, “Imidazoylalkyl substituted with a six membered nitrogen containing nitrogen containing heterocyclic ring” (Schering Corporation, priority 1995, dated 1999).

Tested on: H3 receptors
Conditions: rat brain; Arrang et al.

Structure (SMILES): NCCc1c[nH]cn1 [histamine]
- maximal inhibition of release: approximately 60%
